Reference: publication PMC5786060, “Discovery of new molecular entities able to strongly interfere with Hsp90 C-terminal domain” (Scientific Reports, 2018)
Like-named read-outs stand apart in the source and are kept apart here.

What was measured:
recombinant human Hsp90α = target: T1, recombinant human Hsp90α (Homo sapiens, UniProt P07900); test: SPR binding to immobilized recombinant Hsp90α; conditions: Biacore 3000, immobilized full length Hsp90α, 25 °C, 1:1 Langmuir model, read-out: KD (nM) ± SD
T1 construct: purchased Abcam
Experimental: Recombinant human Hsp90α was purchased from Abcam (Abcam, Cambridge, UK). […] SPR analyses were carried out according to our previously published data[25]–[28],[32],[50]. Surface Plasmon Resonance Spectroscopy (SPR) analyses were performed to determine binding of various molecules to full length Hsp90α using a Biacore 3000 optical biosensor equipped with research-grade CM5 sensor chips (GE Healthcare). Hsp90α was coupled to the surface of a CM5 sensor chip using standard amine-coupling protocols, according to the manufacturer’s instructions.
The protein (100 µg mL^−1 in 10 mM CH3COONa, pH 5.0) was immobilized on individual sensor chip surfaces at a flow rate of 5 µL min^−1 to obtain densities of 8–12 kRU. For the experiments a recombinant Hsp90α surface, a BSA surface and one unmodified reference surface were prepared for simultaneous analyses. […] For each molecule a six-point concentration series were set up, spanning […], and for each sample the complete binding study was performed using triplicate aliquots. Changes in mass, due to the binding response, were recorded as resonance units (RU). To obtain the dissociation constant (KD) (Table 1), these responses were fit to a 1:1 Langmuir binding model by nonlinear regression using the BiaEvaluation software program provided by GE Healthcare. Simple interactions were suitably fitted to a single-site bimolecular interaction model (A + B = AB), yielding a single KD. (Table 1). SPR experiments were performed at 25 °C, using a flow rate of 50 µL min^−1, with 60 s monitoring of association and 300 s monitoring of dissociation.

[1] = tested on: U937 (human monocytic cell line from histiocytic lymphoma); test: Anti-proliferation MTT assay, U937 cells; format: cell-based; conditions: for IC50: Homo sapiens
Experimental: (§1) Jurkat and U937 (2 × 10^4 /well) cells were seeded in triplicate in 96 well−plates and incubated for the 24 h or 48 h in the absence or presence of different concentrations of compounds 1, 4–5, 7–15, 21–22, 26 (concentration between 10 µM to 100 µM) or Novobiocin (concentration between 50 µM to 500 µM). Stock solutions of compounds (100 mM in DMSO) were diluted just before addition to the sterile culture medium and the final concentration of DMSO was 0.15% (v/v).
(§2) The number of viable cells was determined by using a […] (MTT, Sigma-Aldrich) conversion assay, according to the method described by Terracciano et al. 2016[27],[28]. After the indicated treatment, the cells were incubated for additional 3 h at 37 °C, with 25 µL of MTT (5 mg/mL in PBS). The formazan crystals thus formed were dissolved in 100 μl of buffer containing 50% (v/v) N,N-dimethylformamide, 20% SDS (pH 4.5). The absorbance was read at 570 nm using an Absorbance Microplate Reader (Titertek multiskan MCC7340, LabSystems, Vienna, VA, USA) equipped with a 620 nm filter. The cell population growth inhibition was also tested by cytometric counting (trypan blu exclusion). IC50 values were calculated from cell viability dose−response curves and defined as the concentration resulting in 50% inhibition of cell survival, compared to control cells treated with DMSO (see Supplementary Material Tables S2 and S3).

[2] = tested on: Jurkat (human leukemic T lymphocyte); test: Anti-proliferation MTT assay, Jurkat cells; format: cell-based; conditions: for IC50: Homo sapiens
Experimental: as §1, §2

[3] = tested on: PHA-stimulated human peripheral blood mononuclear cells (PBMC); test: Cytotoxicity on PHA-stimulated PBMC by trypan blue count; format: cell-based; conditions: 25 µM, DMSO control about 5 ± 0.9%
Experimental: Human peripheral blood mononuclear cells (PBMC), induced to proliferate by phytohemagglutinin (PHA) (10 µg/ml), were used to evaluate cytotoxic effects by trypan blue count of compound 7 and 10. Human peripheral blood mononuclear cells (PBMC) were isolated from buffy coats of healthy donors (kindly provided by the Blood Center of the Hospital of Battipaglia, Salerno, Italy) by using standard Ficoll−Hypaque gradients.

Jurkat cells = test: Cell cycle distribution / hypodiploid cells by PI flow cytometry; format: cell-based, human; conditions: for hypodiploid cells (subG0/G1 DNA content): 100 µM; for hypodiploid cells: 200 µM
Experimental: Cell DNA content was measured by propidium iodide (PI) incorporation into permeabilized cells, as described by Nicoletti et al. Briefly, the Jurkat cells were treated for 24 h or 48 h with compounds used at the different concentrations. In particular, the compounds 7 or 10 were used at 25 or 50 µM, novobiocin was used at 50, 100 or 200 µM. The treated cells were harvested and incubated with a PI solution (0.1% sodium citrate, 0.1% Triton X-100 and 50 μg/ml of prodium iodide, Sigma-Aldrich, 10 μg/ml Rnase A) for 30 min at room temperature.
The cells were analyzed using FACScalibur flow cytometry (Becton Dickinson, San Josè, CA. The distribution of cells in cell cycle phases was determined using ModFit LT analysis software (Becton Dickinson). The percentage of apoptotic cells is represented as the percentage of hypodiploid cells accumulated at the sub G0/G1 phase of the cell cycle and was quantified using the CellQuest software (Becton Dickinson). Results were expressed as a mean ± SD of three experiments performed in triplicate.

[4] = tested on: Hsp90-dependent client proteins Raf-1, p-Akt, p-Erk and p53; Hsc70, Hsp90, Hsp70 in Jurkat cells; test: Western blot of Hsp90 client proteins and heat shock proteins; format: cell-based, human; conditions: 24 h; for degradation of Hsp90-dependent client proteins Raf-1, p-Akt, p-Erk and p53 / reduction of Hsc70: 25 and 50 µM, western blot densitometry
Experimental: Following the treatment, the cells were trypsinized and homogenized on ice in RIPA lysis buffer (50 mM Hepes, 10 mM EDTA, 150 mM NaCl, 1% NP-40, 0.5% sodium deoxycholate, 0.1% SDS, pH 7.4), supplemented with protease inhibitors cocktail (Sigma-Aldrich). After centrifugation at 4 °C to removed cell debris, an equal protein amount (40 µg) was separated by SDS-PAGE under denatured reducing conditions and was then transferred to nitrocellulose membranes. The blots were blocked with 3% BSA and were incubated at 4 °C overnight with primary antibodies: anti-Hsp 70; anti-Hsp 90α/ß, anti-Raf1, anti-pAkt, anti Erk, anti pErk, anti-p53, anti Hsc70, anti GRP94, anti cyclin A antibodies (Santa Cruz Biotechnology, Inc., Delaware, CA, USA), anti-actin antibody (Sigma-Aldrich) anti CDK2, anti Cyclin D1 and anti CDK4 antibodies (Cell Signaling Technology, Leiden, Netherlands). Appropriate peroxidase-conjugate secondary antibodies were used to detect primary antibodies, and enzymatic signals were visualized by chemiluminescence reagent Pierce ECL (Thermo Scientific, Rockford, IL, USA). Quantitative densitometry analyses were performed using a ImageQuant LAS 4000 system (GE Healthcare Life Sciences,NY, USA).

[5] = U-937, 24 h, read-out: IC50 (µM) 24h
[6] = U-937, 48 h, read-out: IC50 (µM) 48h

Row | SMILES | Kd (recombinant human Hsp90α) | IC50 [1, 5] | IC50 [1, 6] | IC50 ([2]; 24 h, read-out: IC50 (µM) 24h) | IC50 ([2]; 48 h, read-out: IC50 (µM) 48h) | further results
1 | NC(=O)c1ccccc1NC(=O)CCCCCN1C(=O)c2ccccc2C1=O [Compound 1] | 1.5 ± 0.5 nM | > 100 µM | > 100 µM | > 100 µM | > 100 µM | 
2 | O=C1c2ccccc2C(=O)N1CCSc1ncnc2scc(-c3ccc(Cl)cc3)c12 [Compound 4] | 3.2 ± 1.1 nM | > 100 µM | > 100 µM | > 100 µM | > 100 µM | 
3 | Cc1cc(C)c2c(C)cc3nnc(SCCCN4C(=O)c5ccccc5C4=O)n3c2c1 [Compound 5] | 14.7 ± 9.4 nM | 91.2 µM | 91.2 µM | 100 µM | 98.3 µM | 
4 | COc1ccc(NCC(=O)Nc2ncc(Cc3ccc(Cl)c(Cl)c3)s2)cc1 [Compound 7] | 5.2 ± 3.8 nM | 51.2 µM | 51 µM | 25.1 µM | 22 µM | non-viable cells percentage ([3]; 24 h): about 6 ± 1.8%; non-viable cells percentage ([3]; 48 h): ~8 ± 1.5%; hypodiploid cells (subG0/G1 DNA content) (Jurkat cells; 48 h): 10%; degradation of Hsp90-dependent client proteins Raf-1, p-Akt, p-Erk and p53 [4]: 50–60%; reduction of Hsc70 [4]: 15–20%
5 | O=C(CNc1ccc(F)cc1)Nc1ncc(Cc2ccccc2F)s1 [Compound 8] | 2.4 ± 0.6 nM |  |  |  |  | IC50 (µM) 24h [1]: not active; IC50 (µM) 48h [1]: not active; IC50 (µM) 24h ([2]; 24 h): not active; IC50 (µM) 48h ([2]; 48 h): not active
6 | COc1ccc(NCC(=O)Nc2ncc(Cc3cccc4ccccc34)s2)cc1 [Compound 9] | 20.9 ± 9.5 nM | 97.3 µM | 95.3 µM | 90.2 µM | 85.5 µM | 
7 | O=C(CCCCCn1c(=O)[nH]c2ccccc2c1=O)Nc1ccc(Br)cc1F [Compound 10] | 20.8 ± 8.7 nM | 52 µM | 50 µM | 26.1 µM | 23.5 µM | non-viable cells percentage ([3]; 24 h): about 7 ± 1.3%; non-viable cells percentage ([3]; 48 h): ~9 ± 1.8%; hypodiploid cells (subG0/G1 DNA content) (Jurkat cells; 48 h): 10%; cell cycle phase in which cells are arrested (Jurkat cells; after 24 h, retained after 48 h): S phase; degradation of Hsp90-dependent client proteins Raf-1, p-Akt, p-Erk and p53 [4]: 50–60%; reduction of Hsc70 [4]: 15–20%
8 | O=C(CCCCCn1c(=O)[nH]c2ccccc2c1=O)CCCn1ccnc1 [Compound 11] | 79.3 ± 7.2 nM | 90.1 µM | 90.3 µM | 48.2 µM | 42.5 µM | 
9 | O=C(CCCCCn1c(=O)[nH]c2ccccc2c1=O)NCCN1CCOCC1 [Compound 12] | 95.1 ± 5.7 nM | > 100 µM | > 100 µM | > 100 µM | > 100 µM | 
10 | COC(=O)c1ccc(NC(=O)CCCCCn2c(=O)[nH]c3ccccc3c2=O)cc1 [Compound 13] | 300 ± 19.3 nM | 98.3 µM | 97 µM | 56.8 µM | 54 µM | 
11 | NC(=O)c1ccc(NC(=O)CCCCCn2c(=O)[nH]c3ccccc3c2=O)cc1 [Compound 14] | 260 ± 8.4 nM | > 100 µM | > 100 µM | > 100 µM | > 100 µM | 
12 | O=C1CCS(=O)(=O)N1c1ccc(S(=O)(=O)NCc2cccc3c2OCO3)cc1 [Compound 15] | 4.8 ± 2.9 nM |  |  |  |  | IC50 (µM) 24h [1]: not active; IC50 (µM) 48h [1]: not active; IC50 (µM) 24h ([2]; 24 h): not active; IC50 (µM) 48h ([2]; 48 h): not active
13 | C=CCNC1=C2C[C@@H](C)C[C@H](OC)[C@H](O)[C@@H](C)/C=C(\C)[C@H](OC(N)=O)[C@@H](OC)/C=C\C=C(/C)C(=O)NC(=CC1=O)C2=O [Compound 17-AAG, 17-(Allylamino)-17-demethoxygeldanamycin, reference compound] |  |  |  |  |  | effect on Hsp90 and Hsp70 protein levels (heat shock response) ([4]; 17-AAG 2 µM, compounds 25 and 50 µM): significant up-regulation of Hsp90 and Hsp70 expression levels
14 | COC(=O)c1ccc(Oc2c[nH]nc2-c2ccc(OC)cc2O)cc1 [Compound 20] | 14.2 ± 4.9 nM |  |  |  |  | 
15 | COc1cc(/C=N/NC(=O)NC(=O)c2ccccc2Cl)ccc1O [Compound 21] | 13.2 ± 2.3 nM |  |  |  |  | IC50 (µM) 24h [1]: not active; IC50 (µM) 48h [1]: not active; IC50 (µM) 24h ([2]; 24 h): not active; IC50 (µM) 48h ([2]; 48 h): not active
16 | CN(CCc1ccncc1)C(=O)c1ccc(N2C(=O)CCS2(=O)=O)cc1 [Compound 22] | 4.1 ± 2.6 nM |  |  |  |  | IC50 (µM) 24h [1]: not active; IC50 (µM) 48h [1]: not active; IC50 (µM) 24h ([2]; 24 h): not active; IC50 (µM) 48h ([2]; 48 h): not active
17 | O=C(c1ccc2c(c1)OCO2)N1CCC(c2nc3ccccc3[nH]2)CC1 [Compound 26] | 25.7 ± 8.4 nM | > 100 µM | > 100 µM | > 100 µM | > 100 µM | 
18 | CO[C@@H]1[C@@H](OC(N)=O)[C@@H](O)[C@H](Oc2ccc3c(O)c(NC(=O)c4ccc(O)c(CC=C(C)C)c4)c(=O)oc3c2C)OC1(C)C [Novobiocin, reference compound] |  | 232 µM | 190 µM | 171 µM | 150 µM | hypodiploid cells (Jurkat cells; 24 h): 14%; hypodiploid cells (Jurkat cells; 48 h): 30%; effect on cell cycle progression (Jurkat cells; 50 and 100 µM, 24 or 48 h): did not affect cell cycle progression
